Like-named read-outs stand apart in the source and are kept apart here.
Tests used:
[1] = system: PBMEC/C1-2 cell layers; assay: in vitro; details: for PEcell: PBMEC/C1-2 group study
Experimental: (§1) All solutions were prepared under sterile conditions.
(§2) For quantification of NSAIDs a reverse-phase high-performance liquid chromatography (RP-HPLC) system from Shimadzu was used (DGV-20A5/prominence Degasser, SIL – 20AC/prominence Auto Sampler, CTO – 20AC/prominence Column Oven, SPD – 20A/prominence UV detector, CMB – 20A/prominence Communications Bus Module). […] Before analysis proteins of samples were precipitated with ice-cold methanol or acetonitril depending on mobile phase composition and supernatants were analyzed. Data aquisition and analysis were performed by LC-Solution software (Shimadzu Handelsgesellschaft, Austria). Substances were analysed in triplicates with a injection volume of 20–50 µL.Varying mixtures of methanol, acetonitrile, and 10 mM potassium buffer (pH = 2.5 for all analysis except pH = 3.5 for single studies with celecoxib) were used as mobile phase.
(§3) Permeability coefficients were calculated following the clearance principle as described recently. Results of blank value experiments were included into permeability coefficient calculation by using reciprocal correlation shown in equation (1):
(§4) 1/PEcell = 1/PEall – 1/PEblank (1)
(§5) PEblank refers to the permeability coefficient without cell layer, PEall represents the permeability coefficient through membrane insert and the cell layer and PEcell is the permeability coefficient only through the cell layer.

[2] = Single transport studies across ECV304 layers (Transwell)
Experimental: as §1, §2, §3, §4, §5

[3] = system: ECV304 cell layers; assay: in vitro
Experimental: as §1, §2, §3, §4, §5

[4] = Group transport studies across ECV304 layers (Transwell); details: human, PEcell
Experimental: as §1, §2, §3, §4, §5

[5] = type: in vitro ADME, calf; details: group composition, ultrafiltration
Experimental: […]. After incubation at 37°C for 40 minutes, 2 mL of the solutions were centrifuged across prewashed (2 mL PBS, 10 minutes, 2500 g) Centrisart ultra-filters (molecular cut-off 10 kDa, Sartorius) at 2500 g for 5 (PBS and 0% serum), 10 (7.5% serum) or 15 (50% and 100% serum) minutes to obtain at least one third to one half of the totally applied volume. […]. Carboxyfluorescein was measured by the microplate reader method as described above. Unbound substance concentrations in the filtrates were related to stock solutions to determine the serum binding (100%-unbound fraction [%]). Blank experiments (PBS, 0% serum experiments) were included in the calculation of serum binding values to consider systematic procedure errors and binding of the substances to the ultrafiltration membrane. Experiments under each condition were repeated for three times.

[6] = system: primary rat brain microvascular endothelial cells (RBMEC); assay: in vitro
Experimental: as §1, §2, §3, §4, §5

[7] = pig, PEcell, PBMEC/C1-2 group study, all substances (6 NSAIDs, diazepam, CF), C6 medium
[8] = pig, PEcell, PBMEC/C1-2 group study, without Meloxicam
[9] = pig, with verapamil (concentration not stated), PEcell, PBMEC/C1-2 group study, with Verapamil, without Meloxicam
[10] = ECV304 group study, all substances (6 NSAIDs, diazepam, CF), C6 medium
[11] = ECV304 group study, without Meloxicam
[12] = with probenecid (concentration not stated), ECV304 group study, with Probenecid, without Meloxicam
[13] = with verapamil (concentration not stated), ECV304 group study, with Verapamil, without Meloxicam

## Cc1ccc(-c2cc(C(F)(F)F)nn2-c2ccc(S(N)(=O)=O)cc2)cc1 [Celecoxib, celecoxib]
[1]; 100 µM
  PSblank: 6.07 ± 0.45 µL/min
[1]; PBMEC/C1-2, Celecoxib study, insert and cell layer
  PEall: 6.95±0.45 µm/min
[1]; pig, 100 µM
  PSall: 2.92 ± 0.19 µL/min
  PScell: 5.62 ± 0.71 µL/min
[2]; human
  Papp at 100 µM: 7.62 ×10⁻⁶ cm/s
[2]; pig
  Papp at 100 µM: 22.4 ×10⁻⁶ cm/s
[2]; [7]
  Papp at 100 µM: 22.1 ×10⁻⁶ cm/s
[2]; [8]
  Papp at 100 µM: 25.8 ×10⁻⁶ cm/s
[2]; pig, with probenecid (concentration not stated), PEcell, PBMEC/C1-2 group study, with Probenecid, without Meloxicam
  Papp at 100 µM: 27.8 ×10⁻⁶ cm/s
[2]; [9]
  Papp at 100 µM: 35.1 ×10⁻⁶ cm/s
[3]; 100 µM
  PSblank: 5.10 ± 0.06 µL/min
[3]; ECV304, Celecoxib study, insert and cell layer
  PEall: 3.31±0.41 µm/min
[3]; human, 100 µM
  PSall: 1.39 ± 0.17 µL/min
  PScell: 1.91 ± 0.32 µL/min
[4]; [10]
  Papp at 100 µM: 11 ×10⁻⁶ cm/s
[4]; [11]
  Papp at 100 µM: 23.3 ×10⁻⁶ cm/s
[4]; [12]
  Papp at 100 µM: 15.5 ×10⁻⁶ cm/s
[4]; [13]
  Papp at 100 µM: 10.3 ×10⁻⁶ cm/s

## CN1C(=O)CN=C(c2ccccc2)c2cc(Cl)ccc21 [Diazepam, diazepam]
[1]; pig
  PEall: 11.10±1.33 µm/min
[5]; Serum concentration 50%
  Serum binding: 19.52±0.13%
[5]; Serum concentration 100%
  Serum binding: 22.52±0.06%
[5]; Serum concentration […] (C6 medium)
  Serum binding: 8.17±0.49%

## O=C(O)Cc1ccccc1Nc1c(Cl)cccc1Cl [Diclofenac, diclofenac]
[1]; 100 µM
  PSblank: 5.83 ± 0.26 µL/min
[1]; pig, 100 µM
  PEall: 6.00±0.38 µm/min
  PSall: 2.52 ± 0.16 µL/min
  PScell: 4.44 ± 0.48 µL/min
[2]; human
  Papp at 100 µM: 9.45 ×10⁻⁶ cm/s
[2]; pig
  Papp at 100 µM: 17.7 ×10⁻⁶ cm/s
[2]; rat
  Papp at 100 µM: 44.6 ×10⁻⁶ cm/s
[6]; 100 µM
  PSblank: 1.65 ± 0.13 µL/min
[6]; rat, 100 µM
  PEall: 10.84±0.51 µm/min
  PSall: 0.96 ± 0.05 µL/min
  PScell: 2.39 ± 0.27 µL/min
[3]; 100 µM
  PSblank: 4.08 ± 0.41 µL/min
[3]; human, 100 µM
  PEall: 3.58±0.18 µm/min
  PSall: 1.50 ± 0.08 µL/min
  PScell: 2.38 ± 0.19 µL/min

## CC(C)Cc1ccc(C(C)C(=O)O)cc1 (centres unmarked) [Ibuprofen, ibuprofen]
[1]
  PSblank: 6.72 ± 0.12 µL/min
[1]; PBMEC/C1-2, Ibuprofen study, cell layer only
  PScell: 7.10 ± 0.65 µL/min
[1]; PBMEC/C1-2, Ibuprofen study, insert and cell layer
  PSall: 3.45 ± 0.15 µL/min
[2]; pig
  Papp at 100 µM: 28.2 ×10⁻⁶ cm/s
[2]; rat
  Papp at 100 µM: 53.3 ×10⁻⁶ cm/s
[6]
  PSblank: 1.71 ± 0.15 µL/min
[6]; rat
  PSall: 1.07 ± 0.06 µL/min
  PScell: 2.86 ± 0.39 µL/min
[3]; human, 100 µM
  PEall: 4.82±0.05 µm/min
[4]
  Papp at 100 µM: 16.3 ×10⁻⁶ cm/s

## CN1C(C(=O)Nc2ccccn2)=C(O)c2ccccc2S1(=O)=O [Piroxicam, piroxicam]
[1]; 100 µM
  PSblank: 8.69 ± 0.72 µL/min
[1]; PBMEC/C1-2, Piroxicam study, insert and cell layer
  PEall: 11.02±0.87 µm/min
[1]; serum-free medium, without celecoxib
  PEcell: 24.96±2.08 µm/min
[1]; with Probenecid, without Meloxicam
  PEcell: 30.26±5.85 µm/min
[1]; without CF (and without celecoxib)
  PEcell: 30.27±2.61 µm/min
[1]; pig, 240 min, 100 µM
  PSall: 4.63 ± 0.36 µL/min
  PScell: 9.91 ± 1.60 µL/min
[2]; human
  Papp at 100 µM: 20.4 ×10⁻⁶ cm/s
[2]; pig
  Papp at 100 µM: 39.7 ×10⁻⁶ cm/s
[2]; [7]
  Papp at 100 µM: 70 ×10⁻⁶ cm/s
[2]; pig, PEcell, PBMEC/C1-2 group study, glioma conditioned medium, without celecoxib
  Papp at 100 µM: 49.8 ×10⁻⁶ cm/s
[2]; pig, PEcell, PBMEC/C1-2 group study, without Celecoxib
  Papp at 100 µM: 42.1 ×10⁻⁶ cm/s
[2]; [8]
  Papp at 100 µM: 64.2 ×10⁻⁶ cm/s
[2]; [9]
  Papp at 100 µM: 66.8 ×10⁻⁶ cm/s
[2]; rat
  Papp at 100 µM: 52.3 ×10⁻⁶ cm/s
[6]; 100 µM
  PSblank: 1.94 ± 0.12 µL/min
[6]; RBMEC group study, insert and cell layer
  PEall: 12.76±0.33 µm/min
[6]; rat, 100 µM
  PSall: 1.15 ± 0.03 µL/min
  PScell: 2.82 ± 0.17 µL/min
[3]; 100 µM
  PSblank: 8.53 ± 0.36 µL/min
[3]; ECV304, Piroxicam study, insert and cell layer
  PEall: 7.65±0.18 µm/min
[3]; human, 100 µM
  PSall: 3.21 ± 0.07 µL/min
[3]; human, 240 min, 100 µM
  PScell: 5.15 ± 0.19 µL/min
[4]; [10]
  Papp at 100 µM: 21.4 ×10⁻⁶ cm/s
[4]; ECV304 group study, glioma conditioned medium, without celecoxib
  Papp at 100 µM: 30.8 ×10⁻⁶ cm/s
[4]; ECV304 group study, serum-free medium, without celecoxib
  Papp at 100 µM: 37.8 ×10⁻⁶ cm/s
[4]; ECV304 group study, without CF (and without celecoxib)
  Papp at 100 µM: 30.3 ×10⁻⁶ cm/s
[4]; ECV304 group study, without Celecoxib
  Papp at 100 µM: 28.6 ×10⁻⁶ cm/s
[4]; [11]
  Papp at 100 µM: 45.9 ×10⁻⁶ cm/s
[4]; [12]
  Papp at 100 µM: 29.5 ×10⁻⁶ cm/s
[4]; [13]
  Papp at 100 µM: 26.6 ×10⁻⁶ cm/s

## CN1C(C(=O)Nc2ccccn2)=C(O)c2sccc2S1(=O)=O [Tenoxicam, tenoxicam]
[1]; 100 µM
  PSblank: 7.47 ± 0.31 µL/min
[1]; pig, 100 µM
  PEall: 9.84±0.16 µm/min
  PSall: 4.13 ± 0.07 µL/min
  PScell: 9.25 ± 0.33 µL/min
[2]; human
  Papp at 100 µM: 12.3 ×10⁻⁶ cm/s
[2]; pig
  Papp at 100 µM: 36.7 ×10⁻⁶ cm/s
[2]; pig, PEcell
  Papp at 100 µM: 38.5 ×10⁻⁶ cm/s
[2]; rat
  Papp at 100 µM: 21.9 ×10⁻⁶ cm/s
[6]; 100 µM
  PSblank: 1.74 ± 0.10 µL/min
[6]; rat, 100 µM
  PEall: 7.82±0.21 µm/min
  PSall: 0.70 ± 0.02 µL/min
  PScell: 1.18 ± 0.05 µL/min
[3]; 100 µM
  PSblank: 7.12 ± 0.50 µL/min
[3]; human, 100 µM
  PEall: 5.15±0.05 µm/min
  PSall: 2.16 ± 0.02 µL/min
  PScell: 3.11 ± 0.04 µL/min

## carboxyfluorescein [CF]
[1]
  Permeability coefficients (PEcell), range of averages over the single studies: 16.67-19.66 µm/min
